# From patent US20250304933A1, “INDUCIBLE RECOMBINASE SYSTEMS” (priority 2022, published 2025)
# What was measured:
# [1] = test system: DreSTAPL (Dre split with HCV-derived NS3 protease); experiment: DreStaPL recombination reporter assay in infected Lin- bone marrow (Rosa26:RLTG); format: cell-based, mice; conditions: 10 μM
# Procedure: (§1) FIGS. 27A-27I show inducible recombinases for modeling Flt3 activation.
# (§2) MSCV retroviral vectors were transfected with pCL-Eco packaging vector into 293T-17 cells using JetPRIME following the manufacturers protocol (5 ug each, 1:1). Conditioned media was collected 72 hours later and passed through a 0.45 uM filter. Virus was either used fresh or stored at −80 C for later usage. For viral infection in FIG. 4 and Extended Data 8, lineage negative bone marrow was isolated using the Mouse Hematopoietic Progenitor Cell Isolation Kit (StemCell 19856) and plated over retronectin coated 6 or 12 well plates for 2 hours in RPMI+10% FBS supplemented with Penicillin/Streptomycin, 20 ng SCF, 10 ng IL6 and 10 ng IL3. Virus and 100×HEPES was added to the wells, then plates were spun for 1 hour at 800×G at 37 C. Following spin, small molecule ligands used to activate recombinases were added to a final concentration as indicated ethanol (v/v 0.0015%), DMSO (v/v 0.1%), 4-hydroxytamoxifen (4-OHT; 400 nM), trimethoprim (TMP; 1 uM) or grazoprevir (GZV, 10 uM). Cells were harvested for flow cytometric analysis 48 hours post infection. For viral infection followed by transplantation in Extended Data 8, a similar approach was utilized with the following modifications. Donor mice were treated with 5-FU 6 days prior to harvest. […]
# [2] = test system: UbcCreER-Jak2^RL MPN mice; experiment: bone marrow myeloid progenitor frequencies by flow cytometry after 7 days of treatment; format: in vivo
# Jak2^V617F LSKs and MEPs = conditions: 7 days of treatment; for down-regulation of STAT5 target gene expression, NES: vs MPN control
# Procedure: Lineage-depleted marrow was isolated and then TdTonmato+ (Jak2^RL knock-in) or GFP+ (Jak2^RL knock-out) LSKs and MEPs were sorted on a FACSAria III directly into Trizol LS (Invitrogen) and stored at −80° C. until processing. RNA was subsequently isolated using the Direct-Zol Microprep Kit (Zymo Research, R2061) according to manufacturer's protocol and quantified using the Agilent High Sensitivity RNA ScreenTape (Agilent 5067-5579) on an Agilent 2200 TapeStation. cDNA was generated from 1 ng of input RNA using the SMART-Seq HT Kit (Takara 634455) at half reaction volume followed by Nextera XT (Illumina FC-131-1024) library preparation. cDNA and tagmented libraries were quantified using High Sensitivity D5000 ScreenTape (5067-5592) and High Sensitivity D1000 ScreenTape respectively (5067-5584). Libraries were sequenced on a NovaSeq at the Integrated Genomics Operation (IGO) at MSKCC.
# Statistical analyses were performed using Student's t-test (normal distribution) using GraphPad Prism version 6.Oh (GraphPad Software, San Diego, CA). Kaplan-Meier curves were determined using the log-rank test. P<0.05 was considered statistically significant. The number of animals, cells and experimental replication can be found in the respective figure legends. FASTQ files were demultiplexed using a java script from Takara. FASTQ files were mapped and transcript counts were enumerated using STAR (genome version mm10 and transcript version ensembl XX). Counts were input into R and RNA-sequencing analysis using DESeq2. Gene set enrichment analysis was performed using the fgsea package with genesets extracted from the msigdbr package. Single sample gene set enrichment analysis was performed using the gsva package. Figures were generated using ggplot2 and tidyhetamps packages.
# [3] = test system: mice transplanted with UbcCreER-Jak2^RL bone marrow exhibiting active MPN; experiment: 6-week in vivo drug trial in competitive transplant MPN mice; conditions: for CD45.2 chimerism in peripheral blood: 6-week trial; for mutant cell fraction in LSK stem-cell enriched population (mean): bone marrow; for mutant cell fraction in LSK stem-cell enriched population (mean) / Hct / spleen weights (mean): conclusion of 6-week trial; for spleen weights (mean): ruxolitinib 60 mg/kg P.O. twice daily, CHZ868 30 mg/kg P.O. daily
# Procedure: (§3) Peripheral blood was isolated by submandibular bleeds.
# Investigators were not blinded to the identity of mice or samples. Mice were treated for a total of 6 weeks before timed sacrifice and marrow/spleen harvested as above.
# Ybx1 = Ybx1 quantitative RT-PCR in cKit+ bone marrow after 7 days of treatment; format: in vivo, mice; conditions: sorted cKit+ cells
# Procedure: Total RNA was extracted from magnetic-bead isolated cKit+ bone marrow (Miltenyi Biotec) using the Direct-zol RNA extraction kit (Zymo) per manufacturers' protocols respectively. Complementary DNA was then reverse transcribed using the Verso cDNA Synthesis kit (ThermoFisher Scientific). Ybx1 expression was evaluated by quantitative reverse-transcription (qRT) PCR using Taqman probes purchased from ThermoFisher (Mm00850878_g1) on the RealPlex thermocycler (ThermoFisher Scientific, Fairlawn, NJ).
# [4] = test system: DreStaPL-ODC Flt3^GL-ITD mice; experiment: complete blood counts of DreStaPL-ODC x Flt3^GL-ITD mice after GZV; format: in vivo; conditions: crossed to Flt3^GL-ITD, 6-8 weeks post treatment
# Procedure: Peripheral blood was isolated by submandibular bleeds. Complete blood counts were assessed on a ProCyte by IDEXX. For flow cytometry analysis whole blood was lysed with RBC lysis buffer (Biolegend). […] For whole bone marrow was isolation, the femur, hip and tibia were dissected and cleaned.
# [5] = test system: mice transplanted with Dre-electroporated Ubc:CreER-Jak2^RL bone marrow exhibiting MPN; experiment: Jak2^RL knock-in/knock-out competitive transplant, tamoxifen-induced Jak2^V617F deletion; format: in vivo; conditions: within 3-6 weeks following tamoxifen treatment, vs MPN control
# Excerpt: as §3
# [6] = test system: mutant Npm1 GOLDI-Lox Nras^G12D disease; experiment: bone marrow transplant of Dre-induced mutant Npm1 GOLDI-Lox / Nras^G12D, TAM vs vehicle; format: in vivo; conditions: compared to vehicle treated mice
# Procedure: FIGS. 30A-30D show the development of a GOLDI-Lox On/Off Dre/Cre Npm1 Mouse.
# A bone marrow transplant of a Dre-induced mutant Npm1 GOLDI-Lox expressing a co-mutant Nras^G12D allele immediately after Dre induction was performed, and mice were monitored for disease development (FIG. 30D, left panel). Upon development of disease, a cohort (n=5) of mice was treated with tamoxifen (TAM) to induce Cre and lead to reversion of the mutant Npm1 allele back to WT Npm1.
# [7] = test system: Cre-negative Jak2^RL MPN bone marrow cells; conditions: mouse, in vivo
# Excerpt: FIGS. 9D-9E show total bone marrow (BM) cellularity (femur) (FIG. 9D) and Myeloid progenitor (Lineage−cKit+Sca1−) (FIG. 9E) frequencies of MPN (CTRL) vs. tamoxifen (TAM) treated mice transplanted with Cre-negative JAK2^RL knock-in cells in competition with CD45.1 support at timed sacrifice 15 weeks (n=3-4 each; mean±s.e.m).
# Jak2^RL and Jak2^RL/Tet2^f/f lines were crossed to UbcCreER tamoxifen-inducible Cre lines and RLTG dual-recombinase reporter lines.^17,24 Primary recipient mice transplanted with Dre mRNA-recombined UbcCreER-Jak2^RL or UbcCreER-Jak2^RL/Tet2^f/f bone marrow cells were bled every 3-4 weeks post-transplant to monitor disease status. Peripheral blood was isolated by submandibular bleeds. Complete blood counts were assessed on a ProCyte Dx (IDEXX Laboratories, Westbrook, ME) per manufacturer's instruction. […] To induce Cre and delete Jak2^V617F, mice were treated with tamoxifen (TAM; purchased from MedChemExpress) 100 mg/kg daily (dissolved in corn oil) by oral gavage ×4 followed by 14 days of TAM chow approx. 80 mg/kg daily (ENVIGO). […] For terminal tissue isolation, mice were euthanized with CO2 asphyxiation, and tissues were dissected and fixed with 4% paraformaldehyde for histopathological analysis. […] Bone marrow cell numbers were determined via an automatic cell counter (ViCell Blu, Beckman Coulter). […]
# [8] = test system: Jak2^V617F/Tet2^f/f mutant cells; experiment: Jak2^V617F/Tet2^f/f competitive transplant, tamoxifen at 9 weeks post-transplant; format: in vivo, mice; conditions: double-mutant cells
# Excerpt: Dre mRNA was purchased from TriLink Biotechnologies (San Diego, CA) and electroporation carried out using the Neon Transfection System (ThermoScientific) per the manufacturer's protocol. Specifically, bone marrow donor cells were isolated from limb bones into PBS (pH 7.2) containing 2% fetal calf serum via centrifugation. After red blood cell lysis, single-cell suspensions were depleted of lineage-committed hematopoietic cells using a Lineage Cell Depletion Kit according to manufacturer's protocol (EasySep™, StemCell Technologies, Inc.). 2.5-3.0×10^6 lineage-depleted bone marrow was then washed in PBS and then resuspended in 135 uL Buffer T to which 15 μL of Dre mRNA (at 1 μg/μL) was quickly added and electroporated at the following conditions: 1700V for 20 ms×1 pulse. The cells were then pipetted into penicillin-streptomycin free StemSpan SFEM medium with thrombopoietin (TPO; 20 ng/mL; PeproTech) and stem cell factor (SCF; 20 ng/mL; PeproTech), cultured for two hours, and then subsequently harvested and washed/resuspended in phosphate buffered saline (PBS) and transplanted via lateral tail vein injection into lethally irradiated (900cGy) 6-8 week old C57BL/6J recipient mice at approximately 4×10^5 cells per recipient along with 50,000 un-electroporated whole bone marrow support cells. […]
# [9] = test system: Npm1^c-Lox-Flt3^GL-ITD leukemia; experiment: long term TAM treatment of mice engrafted with Npm1^Lox-C Flt3^GL-ITD leukemia; format: in vivo; conditions: TAM-chow diet
# Excerpt: FIGS. 19A-19H show reversible Flt3 mutagenesis in acute myeloid leukemia. Secondary transplant of Npm1^Lox-C Flt3^GL-ITD (20,000 cells) or Idh2^Lox-R140Q Flt3^GL-ITD (500,000) from FIGS. 18A-18E were engrafted into lethally irradiated secondary recipients with 500,000 CD45.1 WT cells. […]
# [10] = test system: FlpoDHFR in Npm1^Frt-C Flt3^Frt-ITD bone marrow; conditions: FlpoDHFR delivered as a retrovirus in a transplant model
# Procedure: as §1, §2
# [11] = test system: Npm1/Flt3-ITD cKIT+ cells; experiment: in vitro culture of cKIT+ leukemic cells with 4-OHT (PrestoBlue); format: cell-based, mice; conditions: 72 hours of culture
# [12] = test system: Npm1GL hematopoietic cells; experiment: cell number of Dre-induced mutant Npm1 GOLDI-Lox hematopoietic cells after 4-hydroxytamoxifen; format: cell-based, mice; conditions: 7 days post administration
# Procedure: FIGS. 30A-30D show the development of a GOLDI-Lox On/Off Dre/Cre Npm1 Mouse. […] A subset of diseased mice were then treated with tamoxifen (TAM) to induce Cre and lead to reversion of the mutant Npm1 allele back to WT Npm1; measured levels of survival (left panel), cKIT^+ cells in the peripheral blood (middle panel), and WBC counts (right panel) in mice that received TAM compared to vehicle treated mice are shown.
# Based on previous data on mutant NPM1, it was expected that cells that lose the mutant Npm1 protein undergo differentiation and eventual apoptosis, ultimately leading to a loss of cell number. To validate the reversion of the mutant Npm1 GOLDI-Lox allele to WT, Dre-induced mutant Npm1 GOLDI-Lox hematopoietic cells were exposed to 4-hydroxytamoxifen (40HT) for Cre-recombinase induction, and cell number measured 7 days post 40HT administration using Cre^−; Npm1GL cells as a negative control.
molecule,measurement,setting,value
C=C[C@@H]1C[C@]1(NC(=O)[C@@H]1C[C@@H](Oc2ncc(OC)c3ccc(Cl)cc23)CN1C(=O)[C@@H](NC(=O)OC(C)(C)C)C(C)(C)C)C(=O)NS(=O)(=O)C1CC1 [asunaprevir],recombination upon inhibition of NS3 proteolytic activity,[1],efficient recombination
N#CC[C@H](C1CCCC1)n1cc(-c2ncnc3[nH]ccc23)cn1 [ruxolitinib],GMP frequency,[2],6.66%
same,MEP frequency,[2],35.3%
same,"down-regulation of STAT5 target gene expression, NES",Jak2^V617F LSKs and MEPs; GSEA of RNA-seq,−0.913
same,"erythroid pathway gene expression (heme metabolism), NES","Jak2^V617F LSKs and MEPs; GSEA of RNA-seq, LSKs",1.45
same,CD45.2 chimerism in peripheral blood,[3],37.7%
same,mutant cell fraction in LSK stem-cell enriched population (mean),[3],87.6%
same,Hct,[3],85.8%
same,spleen weights (mean),[3],235 mg
same,"expression of Ybx1, Rel. exp",Ybx1,2.52
C=C[C@@H]1C[C@]1(NC(=O)[C@@H]1C[C@@H]2CN1C(=O)[C@H](C(C)(C)C)NC(=O)O[C@@H]1C[C@H]1CCCCCc1nc3ccc(OC)cc3nc1O2)C(=O)NS(=O)(=O)C1CC1.O [grazoprevir],"peripheral blood counts with GZV treatment, CAG:DreStaPL-ODC mice",[4],"monocytosis, mild anemia and mild thrombocytopenia"
same,"peripheral blood counts with GZV treatment, Vav1:DreStaPL-ODC mice",[4],no significant differences
same,recombination upon inhibition of NS3 proteolytic activity,[1],efficient recombination
CC/C(=C(\c1ccccc1)c1ccc(OCCN(C)C)cc1)c1ccccc1 [tamoxifen],GMP frequency,[2],20.1%
same,MEP frequency,[2],14.2%
same,"down-regulation of STAT5 target gene expression, NES",Jak2^V617F LSKs and MEPs; GSEA of RNA-seq,−1.51
same,"MAPK activity by RNA-Seq, NES","Jak2^V617F LSKs and MEPs; GSEA of down regulation of KRAS signaling targets, MEPs, vs vehicle",1.35
same,WBC (mean),[5],7.59 K/uL
same,hematocrit (mean),[5],41.6%
same,platelet (mean),[5],749 K/uL
same,WBC counts,[6],significant decrease
same,cKIT+ cells in the peripheral blood,[6],significant decrease
same,survival,[6],no significant difference
same,CD45.2 chimerism in peripheral blood,[3],17.3%
same,mutant cell fraction in LSK stem-cell enriched population (mean),[3],28.7%
same,spleen weights (mean),[3],125 mg
same,"phenotypes observed with Ubc:CreER-Jak2^V617F deletion, with tamoxifen in the absence of Jak2^V617F reversal",[7],not observed
same,hematologic parameters,[8],normalization
same,peripheral blood mutant cell fraction,[8],reductions
same,overall survival,[9],increase in overall survival
same,"expression of Ybx1, Rel. exp",Ybx1,0.42
CC(=O)Nc1cc(Oc2ccc3c(nc(Nc4ccc(F)cc4F)n3C)c2C)ccn1 [CHZ868],"MEP, GMP, and LSK mutant allele burden","[3]; compared to vehicle/ruxolitinib-treated mice, not to the extent seen with Jak2^V617F deletion",Significant reductions
same,Hct,[3],50.3%
same,spleen weights (mean),[3],76 mg
COc1cc(Cc2cnc(N)nc2N)cc(OC)c1OC [trimethoprim],disease induction in the Flp Flt3/Npm1 model,[10],capable of inducing aggressive AML
4-hydroxytamoxifen [4-OHT],"cell number, Ubc:CreERT2 Npm1^c-Lox-Flt3^GL-ITD cells",[11],reduction in cell number
same,"cell number, FlpoERT2 Npm1^c-Frt Flt3^Frt-ITD cells",[11]; control without Cre-deletable allele,not
same,"cell number, Cre+; Npm1GL cells",[12],significant loss of cells
same,"cell number, Cre-; Npm1GL control cells",[12]; negative control,not observed
